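The compound was tested at five concentrations on cells cultured in 96-well plates, with a 48-hour exposure period. TGI is the concentration that stops growth completely.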
How the values were obtained:
Test in all cases: DTP human tumour cell line panel, 48 h
[1] = test system: OVCAR-8 ovarian
[2] = test system: HCC-2998 colon
[3] = test system: SF-539 CNS
[4] = test system: A498 renal
[5] = test system: OVCAR-3 ovarian
[6] = test system: T-47D breast
[7] = test system: SNB-19 CNS
[8] = test system: ACHN renal
[9] = test system: OVCAR-5 ovarian
[10] = test system: CAKI-1 renal

Structure (SMILES) | TGI [1] | TGI [2] | TGI [3] | TGI [4] | TGI [5] | TGI [6] | TGI [7] | TGI [8] | TGI [9] | TGI [10]
O=c1[nH]nc(Cc2ccc(Cl)cc2)n1/N=C/c1c[nH]c2ccccc12 | > 100 µM | > 100 µM | > 100 µM | > 100 µM | > 100 µM | > 100 µM | > 100 µM | > 100 µM | > 100 µM | > 100 µM
NCCS(=O)(=O)O | > 100 µM | > 100 µM | > 100 µM | – | > 100 µM | > 100 µM | > 100 µM | > 100 µM | > 100 µM | > 100 µM
CCOC(=O)C(NC(=O)CC)(Nc1ccc(S(=O)(=O)Nc2ccc(OC)nn2)cc1)C(F)(F)F (stereo not given) | > 100 µM | > 100 µM | > 100 µM | > 100 µM | > 100 µM | > 100 µM | > 100 µM | > 100 µM | > 100 µM | > 100 µM
Cc1cc2oc3c(ccc(=O)n3C)c(=O)c2c(C)c1Cl | > 100 µM | > 100 µM | 74.6 µM | > 100 µM | > 100 µM | > 100 µM | > 100 µM | > 100 µM | > 100 µM | > 100 µM
O=C1c2cccnc2-c2nccc3c2c1nc1ccc(Br)cc13 | 0.223 µM | 0.308 µM | 0.141 µM | 0.223 µM | 0.0586 µM | 0.552 µM | 0.295 µM | 0.0957 µM | 0.324 µM | 0.156 µM
Nc1ccccc1OCCCOc1ccccc1N | > 100 µM | > 100 µM | > 100 µM | > 100 µM | > 100 µM | > 100 µM | > 100 µM | > 100 µM | > 100 µM | > 100 µM
COC12C=CC(CC1)C(C)(C)C2OS(C)(=O)=O (stereo not given) | > 100 µM | > 100 µM | > 100 µM | > 100 µM | > 100 µM | > 100 µM | > 100 µM | > 100 µM | > 100 µM | > 100 µM
O=C(NNS(=O)(=O)c1ccccc1)c1csc(NC(=S)NC2CCCCC2)n1 | > 100 µM | > 100 µM | 62.3 µM | > 100 µM | 34.4 µM | 52.9 µM | – | 93.6 µM | > 100 µM | 61.4 µM
O=S(c1ccc(Cl)cc1)c1ccccc1C1=NCCN1 (stereo not given) | > 100 µM | > 100 µM | – | – | > 100 µM | > 100 µM | > 100 µM | > 100 µM | > 100 µM | > 100 µM
C=CCOCn1ccc(N)nc1=O | > 100 µM | > 100 µM | > 100 µM | – | – | > 100 µM | > 100 µM | – | – | > 100 µM
CC(=O)O[C@H]1C[C@](C)(O)[C@@]23CC([C@@H](OC(=O)C(C)(C)O)[C@@H](OC(C)=O)C2(COC(=O)c2ccccc2)[C@H]1OC(C)=O)C(C)(C)O3 (stereo not given in full) | > 100 µM | > 100 µM | > 100 µM | > 100 µM | > 100 µM | > 100 µM | > 100 µM | > 100 µM | > 100 µM | > 100 µM
COc1cccc([C@@H]2CC(=O)c3cc4c(cc3N2)OCO4)c1 | > 100 µM | > 100 µM | > 100 µM | > 100 µM | > 100 µM | > 100 µM | > 100 µM | > 100 µM | > 100 µM | > 100 µM
CN(C)C=NCC(O)c1ccccc1 (stereo not given) | – | – | > 100 µM | > 100 µM | > 100 µM | > 100 µM | > 100 µM | > 100 µM | > 100 µM | > 100 µM
COc1ccc(C2=NNC(c3cc4cc(Br)ccc4nc3Cl)C2)cc1 (stereo not given) | – | > 25 µM | – | > 25 µM | > 25 µM | > 25 µM | – | > 25 µM | > 25 µM | > 25 µM
CC(=O)N1C(Nc2cccc3nc(C)ccc23)CCN1c1ccccc1 (stereo not given) | > 10 µM | > 10 µM | > 10 µM | – | > 10 µM | > 10 µM | > 10 µM | > 10 µM | > 10 µM | > 10 µM
O=C1C=C(O)c2c(O)ccc(O)c2C1=O | > 100 µM | > 100 µM | > 100 µM | > 100 µM | > 100 µM | > 100 µM | > 100 µM | > 100 µM | > 100 µM | > 100 µM
Cc1ccc(N=C2SC(=NN(C)C)SC2=Nc2ccc(C)cc2)cc1 | > 100 µM | > 100 µM | > 100 µM | > 100 µM | – | > 100 µM | > 100 µM | > 100 µM | > 100 µM | > 100 µM
CC(=O)OCC1OC(SC2=NC(=O)/C(=C/c3ccccc3)S2)C(OC(C)=O)C(OC(C)=O)C1OC(C)=O (stereo not given) | 31.7 µM | > 100 µM | 45.7 µM | 81.2 µM | 44.4 µM | > 100 µM | > 100 µM | > 100 µM | > 100 µM | 12 µM
COc1ccc(-c2nc(-c3cnccn3)n(Cc3ccccc3)n2)cc1 | > 100 µM | > 100 µM | > 100 µM | – | > 100 µM | > 100 µM | > 100 µM | – | > 100 µM | –
CC(=O)c1[nH]c(Nc2ccc(C)cc2)c(C(=S)Nc2ccccc2)c1N | 39.4 µM | 56.5 µM | > 100 µM | 28.8 µM | 35.5 µM | 37.2 µM | 42.9 µM | 36.2 µM | > 100 µM | 35.6 µM
C[C@@]12C[C@@H](c3ccccc3O1)N1Cc3ccccc3CSC1=N2 | > 100 µM | > 100 µM | > 100 µM | > 100 µM | > 100 µM | > 100 µM | > 100 µM | > 100 µM | > 100 µM | > 100 µM
N#CCc1nc2cc(C(F)(F)F)ccc2s1 | 87.4 µM | – | > 100 µM | > 100 µM | 75.8 µM | > 100 µM | – | > 100 µM | > 100 µM | > 100 µM

— PubChem BioAssay (NCI)
